Laboratory results taken from US6727390B2, “Fluorous phosphines and phosphine oxides” (University of Pittsburgh, priority 2001, dated 2004).

Tests used:
[1] = Liquid-liquid partition coefficients between FC-72 and organic solvents (partitioning followed by HPLC analysis); format: physicochemical; settings: room temperature; for Partition coefficient FC-72/THF (P = cfluorous phase/corganic phase): 50/50 (v/v) FC-72/THF; for Partition coefficient FC-72/methanol (P = cfluorous phase/corganic phase): 50/50 (v/v) FC-72/methanol; for Partition coefficient FC-72/toluene (P = cfluorous phase/corganic phase): 50/50 (v/v) FC-72/toluene
Experimental: Liquid-liquid partition coefficients for all six phosphines between FC-72 and three organic solvents (methanol, THF, and toluene) were also measured. The procedure involved a simple partitioning followed by HPLC analysis.

| Structure (SMILES) | Partition coefficient FC-72/THF (P = cfluorous phase/corganic phase) [1] | Partition coefficient FC-72/methanol (P = cfluorous phase/corganic phase) [1] | Partition coefficient FC-72/toluene (P = cfluorous phase/corganic phase) [1] | melting point [°C] |
| --- | --- | --- | --- | --- |
| FC(F)(F)C(F)(F)C(F)(F)C(Cc1ccc(P(c2ccccc2)c2ccccc2)cc1)(C(F)(F)F)C(F)(F)F [Compound 5c, Diphenyl-[4-(3,3,4,4,5,5,5-heptafluoro-2,2-bis-trifluoromethylpentyl)phenyl]phosphane] | 0.01 | 0.09 | 0.12 |  |
| FC(F)(F)C(F)(F)C(F)(F)C(Cc1ccc(P(c2ccc(CC(C(F)(F)F)(C(F)(F)F)C(F)(F)C(F)(F)C(F)(F)F)cc2)c2ccc(CC(C(F)(F)F)(C(F)(F)F)C(F)(F)C(F)(F)C(F)(F)F)cc2)cc1)(C(F)(F)F)C(F)(F)F [Compound 5a, Tris-[4-(3,3,4,4,5,5,5-heptafluoro-2,2-bis-trifluoromethylpentyl)phenyl]phosphane] | 0.51 | 18.48 | 6.84 |  |
| FC(F)(F)C(F)(F)C(F)(F)C(F)(F)C(F)(F)C(F)(F)CCc1ccc(P(c2ccccc2)c2ccc(CCC(F)(F)C(F)(F)C(F)(F)C(F)(F)C(F)(F)C(F)(F)F)cc2)cc1 [Compound 1b, Phenyl-bis-[4-(3,3,4,4,5,5,6,6,7,7,8,8,8-tridecafluorooctyl)phenyl]phosphane] | 0.05 | 1.86 | 0.05 | 42.1 to 43.1 |
| FC(F)(F)C(F)(F)C(F)(F)C(Cc1ccc(P(c2ccccc2)c2ccc(CC(C(F)(F)F)(C(F)(F)F)C(F)(F)C(F)(F)C(F)(F)F)cc2)cc1)(C(F)(F)F)C(F)(F)F [Compound 5b, Phenyl-bis-[4-(3,3,4,4,5,5,5-heptafluoro-2,2-bis-rifluoromethylpentyl)phenyl]phosphane] | 1.05 | 3.34 | 0.18 |  |
| FC(F)(F)C(F)(F)C(F)(F)C(F)(F)C(F)(F)C(F)(F)CCc1ccc(P(c2ccccc2)c2ccccc2)cc1 [Compound 1c, Diphenyl-[4-(3,3,4,4,5,5,6,6,7,7,8,8,8-tridecafluorooctyl)phenyl]phosphane] | 0.02 | 0.12 | 0.05 |  |
| FC(F)(F)C(F)(F)C(F)(F)C(F)(F)C(F)(F)C(F)(F)CCc1ccc(P(c2ccc(CCC(F)(F)C(F)(F)C(F)(F)C(F)(F)C(F)(F)C(F)(F)F)cc2)c2ccc(CCC(F)(F)C(F)(F)C(F)(F)C(F)(F)C(F)(F)C(F)(F)F)cc2)cc1 [Compound 1a, Tris-[4-(3,3,4,4,5,5,6,6,7,7,8,8,8-tridecafluorooctyl)phenyl]phosphane] | 0.08 | 30.03 | 0.75 | 49.9 to 52.4 |
